Results: patent publication US20020111274A1, “1-alkyl-3-[1-(substituted phenyl) benzotriazol-6-yl] uracils” (BASF Aktiengesellschaft, priority 2000, published 2002)

Columns and labels:
[1] = tested on: GALAP Galium; assay: Postemergence herbicidal evaluation, GALAP; type: in vivo, Galium aparine; parameters: scale not given here; conditions: postemergence spray, rated about two-three weeks after treatment
Procedure, shortened: (§1)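 Visual injury rating ~2–3 wk post-spray; replicate tests averaged. Two-week-old seedlings; foliar spray at 40 psi; 0.006–0.400 kg ai/ha in 80/20 acetone/water + 1.0% methylated seed oil.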

[2] = tested on: IPOHE Morningglory, Ivyleaf; assay: Preemergence herbicidal evaluation, IPOHE; type: in vivo, Ipomoea hederacea, (L.) Jacq.; parameters: scale not given here; conditions: preemergence
Procedure, shortened: (§2)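 Seeds mixed with potting soil were planted on about one inch of soil in cups, then sprayed with the test compound in aqueous acetone at roughly 0.013 to 0.800 kg per hectare. Plants were kept under standard greenhouse care and injury was rated four to five weeks after treatment.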

[3] = tested on: CHEAL Lambsquarters, Common; assay: Postemergence herbicidal evaluation, CHEAL; type: in vivo, Chenopodium album, L.; parameters: scale not given here; conditions: postemergence spray, rated about two-three weeks after treatment
Procedure, shortened: as §1

[4] = tested on: AMBEL Ragweed, Common; assay: Preemergence herbicidal evaluation, AMBEL; type: in vivo, Ambrosia artemisifolia, L.; parameters: scale not given here; conditions: preemergence
Procedure, shortened: as §2

[5] = tested on: ORYSAT Rice, Tebonnet; assay: Preemergence herbicidal evaluation, ORYSAT; type: in vivo, Oryza sativa, (L.); parameters: scale not given here; conditions: preemergence
Procedure, shortened: as §2

[6] = tested on: SETVI Foxtail, Green; assay: Preemergence herbicidal evaluation, SETVI; type: in vivo, Setaria viridis, (L.) Beau; parameters: scale not given here; conditions: preemergence
Procedure, shortened: as §2

[7] = tested on: AMBEL Ragweed, Common; assay: Postemergence herbicidal evaluation, AMBEL; type: in vivo, Ambrosia artemisifolia, L.; parameters: scale not given here; conditions: postemergence spray, rated about two-three weeks after treatment
Procedure, shortened: as §1

[8] = tested on: GALAP Galium; assay: Preemergence herbicidal evaluation, GALAP; type: in vivo, Galium aparine; parameters: scale not given here; conditions: preemergence
Procedure, shortened: as §2

[9] = tested on: GLXMAW Soybean, Williams; assay: Preemergence herbicidal evaluation, GLXMAW; type: in vivo, Glycine max, (L.) Merr. cv Williams; parameters: scale not given here; conditions: preemergence
Procedure, shortened: as §2

[10] = tested on: TRZAWR Wheat, Winter, cv Riband; assay: Preemergence herbicidal evaluation, TRZAWR; type: in vivo, Triticum aestivum; parameters: scale not given here; conditions: preemergence
Procedure, shortened: as §2

[11] = tested on: CASOB Sicklepod; assay: Preemergence herbicidal evaluation, CASOB; type: in vivo, Cassia obtusifolia, L.; parameters: scale not given here; conditions: preemergence
Procedure, shortened: as §2

[12] = tested on: ZEAMX Corn, Field; assay: Postemergence herbicidal evaluation, ZEAMX; type: in vivo, Zea mays, L. (Sammel-Bezeichnung); parameters: scale not given here; conditions: postemergence spray, rated about two-three weeks after treatment
Procedure, shortened: as §1

COc1ccc(C)cc1-n1nnc2cc(F)c(-n3c(=O)cc(C(F)(F)F)n(C)c3=O)cc21 [Example 18, 3-[5-fluoro-1-(2-methoxy-5-methylphenyl)-1H-1,2,3-benzotriazol-6-yl]-1-methyl-6-(trifluoromethyl)-2,4(1H,3H)-pyrimidinedione]
Postemergence herbicidal rating GALAP ([1]; 0.008 kg/ha): 1.0 | Postemergence herbicidal rating GALAP ([1]; 0.016 kg/ha): 3.0 | Postemergence herbicidal rating GALAP ([1]; 0.032 kg/ha): 5.0 | Postemergence herbicidal rating GALAP ([1]; 0.062 kg/ha): 5.0 | IPOHE herbicidal rating ([2]; rate 0.016 kg/ha): 7.5 | IPOHE herbicidal rating ([2]; rate 0.032 kg/ha): 9.0 | IPOHE herbicidal rating ([2]; rate 0.062 kg/ha): 8.0 | IPOHE herbicidal rating ([2]; rate 0.125 kg/ha): 9.0 | melting point: 175 to 181 °C | Postemergence herbicidal rating CHEAL ([3]; 0.008 kg/ha): 1.0 | Postemergence herbicidal rating CHEAL ([3]; 0.016 kg/ha): 7.0 | Postemergence herbicidal rating CHEAL ([3]; 0.032 kg/ha): 9.0 | Postemergence herbicidal rating CHEAL ([3]; 0.062 kg/ha): 9.0 | AMBEL herbicidal rating ([4]; rate 0.016 kg/ha): 4.0 | AMBEL herbicidal rating ([4]; rate 0.032 kg/ha): 6.0 | AMBEL herbicidal rating ([4]; rate 0.062 kg/ha): 9.0 | AMBEL herbicidal rating ([4]; rate 0.125 kg/ha): 8.0 | ORYSAT herbicidal rating ([5]; rate 0.016 kg/ha): 3.0 | ORYSAT herbicidal rating ([5]; rate 0.032 kg/ha): 6.0 | ORYSAT herbicidal rating ([5]; rate 0.062 kg/ha): 6.0 | ORYSAT herbicidal rating ([5]; rate 0.125 kg/ha): 6.0 | SETVI herbicidal rating ([6]; rate 0.016 kg/ha): 9.0 | SETVI herbicidal rating ([6]; rate 0.032 kg/ha): 9.0 | SETVI herbicidal rating ([6]; rate 0.062 kg/ha): 9.0 | SETVI herbicidal rating ([6]; rate 0.125 kg/ha): 9.0 | Postemergence herbicidal rating AMBEL ([7]; 0.008 kg/ha): 1.0 | Postemergence herbicidal rating AMBEL ([7]; 0.016 kg/ha): 6.0 | Postemergence herbicidal rating AMBEL ([7]; 0.032 kg/ha): 6.0 | Postemergence herbicidal rating AMBEL ([7]; 0.062 kg/ha): 9.0 | GALAP herbicidal rating ([8]; rate 0.032 kg/ha): 1.0 | GALAP herbicidal rating ([8]; rate 0.062 kg/ha): 5.0 | GALAP herbicidal rating ([8]; rate 0.125 kg/ha): 9.0 | GLXMAW herbicidal rating ([9]; rate 0.016 kg/ha): 3.0 | GLXMAW herbicidal rating ([9]; rate 0.032 kg/ha): 4.5 | GLXMAW herbicidal rating ([9]; rate 0.062 kg/ha): 7.5 | GLXMAW herbicidal rating ([9]; rate 0.125 kg/ha): 9.0 | TRZAWR herbicidal rating ([10]; rate 0.016 kg/ha): 2.0 | TRZAWR herbicidal rating ([10]; rate 0.032 kg/ha): 3.0 | TRZAWR herbicidal rating ([10]; rate 0.062 kg/ha): 6.0 | TRZAWR herbicidal rating ([10]; rate 0.125 kg/ha): 7.0 | CASOB herbicidal rating ([11]; rate 0.016 kg/ha): 2.5 | CASOB herbicidal rating ([11]; rate 0.032 kg/ha): 0.0 | CASOB herbicidal rating ([11]; rate 0.062 kg/ha): 0.5 | CASOB herbicidal rating ([11]; rate 0.125 kg/ha): 5.0 | Postemergence herbicidal rating ZEAMX ([12]; 0.008 kg/ha): 4.5 | Postemergence herbicidal rating ZEAMX ([12]; 0.016 kg/ha): 5.5 | Postemergence herbicidal rating ZEAMX ([12]; 0.032 kg/ha): 6.0 | Postemergence herbicidal rating ZEAMX ([12]; 0.062 kg/ha): 6.0
